In US7135466B2 (Kirin Beer Kabushiki Kaisha, priority 1999, dated 2006):
pIC50: −log10 of the molar value.

These compounds were tested against T1, PDGF-Ra (Homo sapiens, UniProt P16234) (assay: Inhibitory activity against PDGF-Ra phosphorylation by PDGF-AA stimulation using G292). Settings: > means inhibition at indicated concentration not more than 50%, < and << not less than 50%; read-out: PDGF (E) IC50.
T1 construct: host or cells: G-292 human osteosarcoma cells
Type: cell-based
Description: Measurement of Inhibitory Activity Against PDGF-Ra Phosphorylation by PDGF-AA Stimulation Using G292
G-292 human osteosarcoma cells (Dainippon Pharmaceutical Co. Ltd.) were cultured in a DMEM medium (Dainippon Pharmaceutical Co. Ltd.) containing 10% FBS within an incubator containing 5% carbon dioxide until 80% confluent, and the cells were planted at 3×10^4 cells per well in 96-well flat-bottom plates in the same medium containing 0.1% FBS. After cultivation at 37° C. overnight, a solution of a test compound in dimethyl sulfoxide was added to each well, and a reaction was allowed to proceed at 37° C. for one hr.
After the reaction of the test compound, PDGF-AA (Upstate) was added to 50 ng/ml, and the cells were stimulated at 37° C. for 5 min. Thereafter, the cells were solubilized and shaken at room temperature for 20 min.
This solubilized cell solution was transferred to a 96-well plate coated with aniti-phosphotyrosine antibody PY-20, and a reaction was allowed to proceed at 4° C. overnight. Anti-PDGF-Ra (c-20) (Santa Cruz) was added as a primary antibody, and a reaction was allowed to proceed for one hr. GAR (Anti-rabbit Ig, horseradish peroxidase, Amersham) was then added as a secondary antibody, and a reaction was allowed to proceed for one hr. Color development was carried out using a color development kit for peroxidase (Sumitomo Bakelite Co., Ltd.), and the absorbance was measured at 450 nm.

T1 sequence (P16234 24-1089): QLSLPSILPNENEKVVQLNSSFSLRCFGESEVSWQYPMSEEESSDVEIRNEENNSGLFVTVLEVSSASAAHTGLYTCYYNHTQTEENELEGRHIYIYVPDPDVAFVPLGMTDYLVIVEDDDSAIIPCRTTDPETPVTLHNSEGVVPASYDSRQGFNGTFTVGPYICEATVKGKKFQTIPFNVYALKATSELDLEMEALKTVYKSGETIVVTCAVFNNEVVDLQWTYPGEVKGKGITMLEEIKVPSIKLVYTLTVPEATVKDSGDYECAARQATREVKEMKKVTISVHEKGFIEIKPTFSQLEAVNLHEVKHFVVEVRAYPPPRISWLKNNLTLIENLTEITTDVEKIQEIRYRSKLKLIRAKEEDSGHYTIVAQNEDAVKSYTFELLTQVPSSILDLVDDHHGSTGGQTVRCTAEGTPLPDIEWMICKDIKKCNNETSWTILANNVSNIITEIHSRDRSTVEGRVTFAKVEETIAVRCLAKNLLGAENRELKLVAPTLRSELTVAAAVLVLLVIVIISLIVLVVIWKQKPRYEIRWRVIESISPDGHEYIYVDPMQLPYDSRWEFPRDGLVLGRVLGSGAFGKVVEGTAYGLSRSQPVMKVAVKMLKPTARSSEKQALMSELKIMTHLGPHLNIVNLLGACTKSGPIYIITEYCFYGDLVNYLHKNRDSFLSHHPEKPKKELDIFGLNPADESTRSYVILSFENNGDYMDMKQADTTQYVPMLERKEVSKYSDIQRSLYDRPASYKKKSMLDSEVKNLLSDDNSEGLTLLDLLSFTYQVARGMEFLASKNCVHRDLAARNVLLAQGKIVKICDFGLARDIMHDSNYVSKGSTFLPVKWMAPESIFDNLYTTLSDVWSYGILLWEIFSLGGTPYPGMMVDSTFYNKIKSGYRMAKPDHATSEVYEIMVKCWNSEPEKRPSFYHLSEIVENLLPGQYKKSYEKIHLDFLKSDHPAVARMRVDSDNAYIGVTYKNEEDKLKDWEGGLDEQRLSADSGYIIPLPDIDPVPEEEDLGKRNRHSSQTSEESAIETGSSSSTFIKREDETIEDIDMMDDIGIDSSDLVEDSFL

Structure (SMILES) | pIC50
COc1ccc(C(=O)NC(=S)Nc2ccc(Oc3ncnc4cc(OC)c(OC)cc34)cc2)c(OC)c1 [Example 1175, N-(2,4-Dimethoxybenzoyl)-N′-{4-[(6,7-dimethoxy-4-quinazolinyl)oxy]phenyl}thiourea] | 7.43
COc1cc2nccc(Oc3ccc(NC(=S)NC(=O)c4ccc(Br)cc4)cc3)c2cc1OC [Example 1166, N-(4-Bromobenzoyl)-N′-{4-[(6,7-dimethoxy-4-quinolyl)oxy]phenyl}thiourea] | > 8.00

Each compound was assayed against T2, c-kit (Homo sapiens, UniProt P10721) (assay: Inhibitory activity against c-kit autophosphorylation (MO7e cells, h-SCF)). Settings: MO7e cells, 50 ng/ml h-SCF; read-out: c-kit IC50.
T2 construct: MO7e (human megakaryocytic leukemia cell line) which had been arrested for 20 hr; endogenous in cells; host or cells: MO7e human megakaryocytic leukemia cell line
Type: cell-based
Method in brief: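 MO7e human megakaryocytic leukemia cells, arrested 20 hr, treated with compound 1 hr, then stimulated with 50 ng/ml h-SCF for 5 min and lysed. Lysates captured on immobilized anti-phosphotyrosine antibody, detected with anti-c-kit primary and HRP secondary antibody; absorbance at 450 nm.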

T2 sequence (P10721 26-976): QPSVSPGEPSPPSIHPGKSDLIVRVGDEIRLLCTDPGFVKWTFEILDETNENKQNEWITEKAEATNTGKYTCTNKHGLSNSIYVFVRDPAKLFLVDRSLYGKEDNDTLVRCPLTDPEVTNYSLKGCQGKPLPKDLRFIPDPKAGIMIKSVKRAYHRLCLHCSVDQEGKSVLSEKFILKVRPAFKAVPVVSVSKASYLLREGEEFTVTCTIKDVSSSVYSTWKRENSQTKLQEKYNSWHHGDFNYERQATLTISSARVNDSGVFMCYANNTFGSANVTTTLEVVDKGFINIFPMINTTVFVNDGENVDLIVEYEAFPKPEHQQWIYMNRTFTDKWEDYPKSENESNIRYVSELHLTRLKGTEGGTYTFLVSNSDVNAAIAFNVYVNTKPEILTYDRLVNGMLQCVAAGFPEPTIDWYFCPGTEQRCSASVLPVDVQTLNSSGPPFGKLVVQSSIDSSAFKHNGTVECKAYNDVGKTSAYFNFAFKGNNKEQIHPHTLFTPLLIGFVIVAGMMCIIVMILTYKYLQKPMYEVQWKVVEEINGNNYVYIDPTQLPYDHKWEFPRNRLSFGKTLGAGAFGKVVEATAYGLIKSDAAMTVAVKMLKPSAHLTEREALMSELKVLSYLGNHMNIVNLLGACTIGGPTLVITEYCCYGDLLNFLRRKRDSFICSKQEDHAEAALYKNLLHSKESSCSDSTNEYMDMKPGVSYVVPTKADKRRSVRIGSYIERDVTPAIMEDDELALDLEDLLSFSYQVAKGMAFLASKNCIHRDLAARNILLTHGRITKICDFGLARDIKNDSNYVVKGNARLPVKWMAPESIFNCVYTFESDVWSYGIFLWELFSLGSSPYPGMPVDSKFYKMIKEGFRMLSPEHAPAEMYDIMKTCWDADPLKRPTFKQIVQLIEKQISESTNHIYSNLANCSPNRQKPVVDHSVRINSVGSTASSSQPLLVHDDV

Structure (SMILES) | pIC50
COc1ccccc1NC(=O)COc1ccc(Oc2ccnc3cc(OC)c(OC)cc23)cc1 [Example 776, N1-(2-Methoxyphenyl)-2-{4-[(6,7-dimethoxy-4-quinolyl)oxy]phenoxy}acetamide] | 6.41

Same assay, conditions: MO7e cells, h-SCF 50 ng/ml; read-out: c-kit IC50

Structure (SMILES) | pIC50
COc1cc2nccc(Oc3cc(C)c(NC(=O)OC4CCCCC4)cc3C)c2cc1OC [Example 221, Cyclohexyl N-{4-[(6,7-dimethoxy-4-quinolyl)oxy]-2,5-dimethylphenyl}carbamate] | 6.96
COc1cc2ncnc(Oc3ccc(NC(=O)OCc4ccccc4)cc3)c2cc1OC [Example 220, Benzyl N-{4-[(6,7-dimethoxy-4-quinazolinyl)oxy]phenyl}carbamate] | 7.11
COc1cc2nccc(Oc3cc(C)c(NC(=O)OCc4ccccc4)cc3C)c2cc1OC [Example 218, Benzyl N-{4-[(6,7-dimethoxy-4-quinolyl)oxy]-2,5-dimethylphenyl}carbamate] | 6.91
CCCCOC(=O)Nc1ccc(Oc2ncnc3cc(OC)c(OC)cc23)cc1Cl [Example 345, Butyl N-{2-chloro-4-[(6,7-dimethoxy-4-quinazolinyl)oxy]phenyl}carbamate] | 6.91

Same assay, conditions: MO7e cells, h-SCF stimulation; read-out: c-kit IC50

Structure (SMILES) | pIC50
COc1cc2nccc(Oc3ccc(NC(=S)NC(=O)c4ccc(Cl)cc4Cl)cc3Cl)c2cc1OC [Example 1114, N-{3-Chloro-4-[(6,7-dimethoxy-4-quinolyl)oxy]phenyl}-N′-(2,4-dichlorobenzoyl)thiourea] | 6.17
COc1cc2nccc(Oc3ccc(NC(=S)NC(=O)C4CCCC4)cc3)c2cc1OC [Example 1061, N-Cyclopentylcarbonyl-N′-{4-[(6,7-dimethoxy-4-quinolyl)oxy]phenyl}thiourea] | 6.87
COc1ccc(C(=O)NC(=S)Nc2ccc(Oc3ccnc4cc(OC)c(OC)cc34)c(C)c2C)cc1 [Example 1087, N-{4-[(6,7-Dimethoxy-4-quinolyl)oxy]-2,3-dimethylphenyl}-N′-(4-methoxybenzoyl)thiourea] | 6.31
COc1cc2nccc(Oc3ccc(SCCCOc4cccc(C)c4)cc3)c2cc1OC [Example 841, 6,7-Dimethoxy-4-(4-{[3-(3-methylphenoxy)propyl]sulfanyl}phenoxy)quinoline] | 6.93
COc1cc2nccc(Oc3ccc(SCCOc4cccc(F)c4)cc3)c2cc1OC [Example 821, 4-(4-{[2-(3-Fluorophenoxy)ethyl]sulfanyl}phenoxy)-6,7-dimethoxyquinoline] | 6.74
COc1cc2ncnc(Oc3ccc(NC(=S)NC(=O)c4cccc(Br)c4)cc3)c2cc1OC [Example 958, N-(3-Bromobenzoyl)-N′-{4-[(6,7-dimethoxy-4-quinazolinyl)oxy]phenyl}thiourea] | 6.71
COc1cc2nccc(Oc3ccc(NC(=S)NC(=O)c4cccc(F)c4)cc3)c2cc1OC [Example 931, N-{4-[(6,7-Dimethoxy-4-quinolyl)oxy]phenyl}-N′-(3-fluorobenzoyl)thiourea] | 6.29
COc1cc2nccc(Oc3ccc(NC(=S)NC(=O)c4ccccc4Br)cc3Cl)c2cc1OC [Example 922, N-(2-Bromobenzoyl)-N′-{3-chloro-4-[(6,7-dimethoxy-4-quinolyl)oxy]phenyl}thiourea] | 6.44
COc1cc2nccc(Oc3ccc(NC(=S)NC(=O)CCSC)c(F)c3)c2cc1OC [Example 1067, N-{4-[(6,7-Dimethoxy-4-quinolyl)oxy]-2-fluorophenyl}-N′-[3-(methylsulfanyl)propanoyl]thiourea] | 6.35
COc1cc2ncnc(Oc3ccc(SCCOc4cccc(C)c4)cc3)c2cc1OC [Example 850, 6,7-Dimethoxy-4-(4-{[2-(3-methylphenoxy)ethyl]sulfanyl}phenoxy)quinazoline] | 6.56
COc1cc2nccc(Oc3ccc(NC(=S)NC(=O)c4ccc(F)cc4)c(F)c3)c2cc1OC [Example 966, N-{4-[(6,7-Dimethoxy-4-quinolyl)oxy]-2-fluorophenyl}-N′-(4-fluorobenzoyl)thiourea] | 6.63
COc1cc2nccc(Oc3ccc(NCCOc4ccccc4OC)cc3)c2cc1OC [Example 853, N-{4-[(6,7-Dimethoxy-4-quinolyl)oxy]phenyl}-N-[2-(2-methoxyphenoxy)ethyl]amine] | 6.99
COc1cc2nccc(Oc3ccc(NC(=S)NC(=O)CCCCl)cc3F)c2cc1OC [Example 1068, N-(4-Chlorobutanoyl)-N′-{4-[(6,7-dimethoxy-4-quinolyl)oxy]-3-fluorophenyl}thiourea] | 6.91
COc1cc2nccc(Oc3ccc(NC(=S)NC(=O)c4cccc(Cl)c4)cc3)c2cc1OC [Example 932, N-(3-Chlorobenzoyl)-N′-{4-[(6,7-dimethoxy-4-quinolyl)oxy]phenyl}thiourea] | 6.68
COc1cc2nccc(Oc3ccc(NC(=S)NC(=O)c4ccc(F)cc4)cc3F)c2cc1OC [Example 972, N-{4-[(6,7-Dimethoxy-4-quinolyl)oxy]-3-fluorophenyl}-N′-(4-fluorobenzoyl)thiourea] | 6.27
COc1cc2nccc(Oc3ccc(NC(=S)NC(=O)c4ccc(C)cc4)cc3F)c2cc1OC [Example 970, N-{4-[(6,7-Dimethoxy-4-quinolyl)oxy]-3-fluorophenyl}-N′-(4-methylbenzoyl)thiourea] | 6.52
COc1ccc(OCCNc2ccc(Oc3ccnc4cc(OC)c(OC)cc34)cc2)cc1 [Example 863, N-{4-[(6,7-Dimethoxy-4-quinolyl)oxy]phenyl}-N-[2-(4-methoxyphenoxy)ethyl]amine] | 7.51
COc1cc2nccc(Oc3ccc(NC(=S)NC(=O)c4ccc5c(c4)OCO5)cc3F)c2cc1OC [Example 1145, N-(1,3-Benzodioxol-5-ylcarbonyl)-N′-{4-[(6,7-dimethoxy-4-quinolyl)oxy]-3-fluorophenyl}thiourea] | 6.26
COc1cc2nccc(Oc3ccc(NC(=S)NC(=O)c4cccc(Br)c4)cc3Cl)c2cc1OC [Example 952, N-(3-Bromobenzoyl)-N′-{3-chloro-4-[(6,7-dimethoxy-4-quinolyl)oxy]phenyl}thiourea] | 6.50
COc1cc2nccc(Oc3ccc(NC(=S)NC(=O)c4cccc(C)c4)cc3Cl)c2cc1OC [Example 947, N-{3-Chloro-4-[(67-dimethoxy-4-quinolyl)oxy]phenyl}-N′-(3-methylbenzoyl)thiourea] | 6.43
COc1cc2nccc(Oc3ccc(NC(=S)NC(=O)c4ccc(F)cc4F)cc3)c2cc1OC [Example 1006, N-(2,4-Difluorobenzoyl)-N′-{4-[(6,7-dimethoxy-4-quinolyl)oxy]phenyl}thiourea] | 6.74
COc1cc2ncnc(Oc3ccc(NC(=S)NC(=O)c4cccc(Cl)c4)cc3)c2cc1OC [Example 955, N-(3-Chlorobenzoyl)-N′-{4-[(6,7-dimethoxy-4-quinazolinyl)oxy]phenyl}thiourea] | 6.60
COc1cc2nccc(Oc3ccc(SCCOc4ccc(C(C)C)cc4)cc3)c2cc1OC [Example 816, 4-(4-{[2-(4-Isopropylphenoxy)ethyl]sulfanyl}phenoxy)-6,7-dimethoxyquinoline] | 6.91
COc1cc2nccc(Oc3ccc(NC(=S)NC(=O)c4ccccc4Cl)cc3F)c2cc1OC [Example 913, N-(2-Chlorobenzoyl)-N′-{4-[(6,7-dimethoxy-4-quinolyl)oxy]-3-fluorophenyl}thiourea] | 6.25

Same assay, conditions: Mo7e, figure in parentheses in −( ); at 1000 nM

Structure (SMILES) | inhibition at 1 µM
COc1cc2nccc(Oc3ccc(NC(=S)NC(=O)c4ccccc4)c(C)c3C)c2cc1OC [Example 1084, N-Benzoyl-N′-{4-[(6,7-dimethoxy-4-quinolyl)oxy]-2,3-dimethylphenyl}thiourea] | 30%
COc1cc2nccc(Oc3ccc(NC(=S)NC(=O)c4ccc(Cl)cc4)c(F)c3)c2cc1OC [Example 965, N-(4-Chlorobenzoyl)-N′-{4-[(6,7-dimethoxy-4-quinolyl)oxy]-2-fluorophenyl}thiourea] | 24%
COc1cc2nccc(Oc3ccc(NC(=S)NC(=O)c4ccc([N+](=O)[O-])cc4)c(F)c3)c2cc1OC [Example 968, N-{4-[(6,7-Dimethoxy-4-quinolyl)oxy]-2-fluorophenyl}-N′-(4-nitrobenzoyl)thiourea] | 27%
COc1ccc(C(=O)NC(=S)Nc2ccc(Oc3ccnc4cc(OC)c(OC)cc34)c(Cl)c2)c(OC)c1 [Example 1117, N-{3-Chloro-4-[(6,7-dimethoxy-4-quinolyl)oxy]phenyl}-N′-(2,4-dimethoxybenzoyl)thiourea] | 31%
